Assay results reported in BindingDB's records for doi:10.1016/s0960-894x(01)00004-x (Seoul National University, 2001).

Molecular target: Prostaglandin G/H synthase 1 (Oryctolagus cuniculus)
Assay: Inhibitory activity against Prostaglandin G/H synthase 1 from rabbit renal microsomes

Question: How did the IC50 turn out when C=C[C@@]1(C)CC=C2C(CCC3[C@](C)(C(=O)NO)CCC[C@@]23C)C1 (stereo partly drawn) [(1R,4aR,7S)-1,4a,7-Trimethyl-7-vinyl-1,2,3,4,4a,6,7,8,8a,9,10,10a-dodecahydro-phenanthrene-1-carboxylic acid hydroxyamide] was run?
Answer: 45.6 µM

Question: With C=C[C@@]1(C)CC=C2C(CCC3[C@](C)(C(=O)OC)CCC[C@@]23C)C1 (stereo partly drawn) [(1R,4aR,7S)-1,4a,7-Trimethyl-7-vinyl-1,2,3,4,4a,6,7,8,8a,9,10,10a-dodecahydro-phenanthrene-1-carboxylic acid methyl ester] as the compound, how does the IC50 read?
Answer: > 1000 µM

Question: For C[C@]1(CCF)CC=C2C(CCC3[C@](C)(C(=O)F)CCC[C@@]23C)C1 (stereo partly drawn) [(1R,4aR,7S)-7-(2-Fluoro-ethyl)-1,4a,7-trimethyl-1,2,3,4,4a,6,7,8,8a,9,10,10a-dodecahydro-phenanthrene-1-carbonyl fluoride], which IC50 is on record?
Answer: 18.4 µM

Question: With CC[C@@]1(C)CC=C2C(CCC3[C@](C)(C(=O)O)CCC[C@@]23C)C1 (stereo partly drawn) [(1R,4aR,7S)-7-Ethyl-1,4a,7-trimethyl-1,2,3,4,4a,6,7,8,8a,9,10,10a-dodecahydro-phenanthrene-1-carboxylic acid] as the compound, how does the IC50 read?
Answer: 229 µM

Question: With C=C[C@@]1(C)CC=C2C(CCC3[C@](C)(CC(=O)O)CCC[C@@]23C)C1 (stereo partly drawn) [((1S,4aR,7S)-1,4a,7-Trimethyl-7-vinyl-1,2,3,4,4a,6,7,8,8a,9,10,10a-dodecahydro-phenanthren-1-yl)-acetic acid] as the compound, how does the IC50 read?
Answer: 28.1 µM

Question: How did the IC50 turn out when C=C[C@@]1(C)CC=C2C(CCC3[C@](C)(CCC/C=C/C(=O)O)CCC[C@@]23C)C1 (stereo partly drawn) [(E)-6-((1R,4aR,7S)-1,4a,7-Trimethyl-7-vinyl-1,2,3,4,4a,6,7,8,8a,9,10,10a-dodecahydro-phenanthren-1-yl)-hex-2-enoic acid] was run?
Answer: 32.7 µM

Question: Which IC50 does the source give for C=C[C@@]1(C)CC=C2C(CCC3[C@](C)(CO)CCC[C@@]23C)C1 (some centres not stated) [acanthol] here?
Answer: 791 µM
